Measured values reported in ChEMBL document CHEMBL1140504, “Mimetics of the tri- and tetrasaccharide epitope of GQ1balpha as myelin-associated glycoprotein (MAG) ligands” (Bioorg Med Chem, 2007).
Active and inactive are the calls of the source. No cut-off for these calls is given here.

Target: T1, Myelin-associated glycoprotein (Homo sapiens) (UniProt P20916)
T1 sequence (whole entry): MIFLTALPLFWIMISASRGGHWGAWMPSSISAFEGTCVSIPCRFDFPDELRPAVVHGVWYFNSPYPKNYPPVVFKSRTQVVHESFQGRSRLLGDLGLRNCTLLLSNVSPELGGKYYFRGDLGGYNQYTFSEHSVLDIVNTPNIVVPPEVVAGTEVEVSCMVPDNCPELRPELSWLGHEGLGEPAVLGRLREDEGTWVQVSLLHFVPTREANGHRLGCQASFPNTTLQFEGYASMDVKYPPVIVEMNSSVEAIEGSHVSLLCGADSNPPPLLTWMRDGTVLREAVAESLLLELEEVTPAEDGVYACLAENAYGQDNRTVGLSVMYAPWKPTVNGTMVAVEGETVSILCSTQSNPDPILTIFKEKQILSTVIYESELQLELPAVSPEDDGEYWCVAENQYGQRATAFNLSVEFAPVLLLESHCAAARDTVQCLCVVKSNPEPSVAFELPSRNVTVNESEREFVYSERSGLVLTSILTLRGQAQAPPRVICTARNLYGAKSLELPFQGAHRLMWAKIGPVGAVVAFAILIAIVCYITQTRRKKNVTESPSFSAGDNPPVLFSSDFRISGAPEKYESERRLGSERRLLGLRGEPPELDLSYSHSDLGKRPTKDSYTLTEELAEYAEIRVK
Experiment: Ratio of IC50 for drug to sodium (2S,4S,5R,6R)-5-acetami do-2-((2R,3R,4S,5S,6R)-2-((2R, 3R,4S,6S)-3-acetamido-6-(hydro xymethyl)-2-(2-(trimethylsilyl )ethoxy)-tetrahydro-2H-pyran-4 -yloxy)-3,5-dihydroxy-6-(hydro xymethyl)-tetrahydro-2H-pyran- 4-yloxy)-4-hydroxy-6-((1S,2R)- 1,2,3-trihydroxypropyl)-tetrah ydro-2H-pyran-2-carboxylate for human recombinant MAG N-terminal domain expressed in CHO cells
Type: cell-based

SMILES	Ratio IC50	Activity
CC(=O)N[C@H]1[C@H]([C@@H](O)[C@H](O)CO)O[C@@](Oc2cccc(-c3cn(CC(=O)O)nn3)c2)(C(=O)O)C[C@@H]1O	1.1	
CC(=O)N[C@H]1[C@H](OCC[Si](C)(C)C)O[C@H](CO[C@]2(C(=O)O)C[C@H](O)[C@@H](NC(C)=O)[C@H]([C@H](O)[C@H](O)CO)O2)C[C@@H]1O[C@@H]1O[C@H](CO)[C@H](O)[C@H](O[C@]2(C(=O)O)C[C@H](O)[C@@H](NC(C)=O)[C@H]([C@@H](O)[C@H](O)CO)O2)[C@H]1O	4	
CC(=O)N[C@H]1[C@H]([C@@H](O)[C@H](O)CO)O[C@](OCc2cccc(Oc3ccccc3)c2)(C(=O)O)C[C@@H]1O		inactive
CC(=O)N[C@H]1[C@H]([C@@H](O)[C@H](O)CO)O[C@@](OCc2ccccc2)(C(=O)O)C[C@@H]1O	0.62	
CC(=O)N[C@H]1[C@H]([C@@H](O)[C@H](O)CO)O[C@](Oc2ccc(Oc3ccccc3)cc2)(C(=O)O)C[C@@H]1O		inactive

The remaining lines, values ahead:

Ratio IC50	Activity	SMILES
1		CC(=O)N[C@H]1[C@H]([C@@H](O)[C@H](O)CO)O[C@@](Oc2cccc(-c3ccc(CC(=O)O)cc3)c2)(C(=O)O)C[C@@H]1O
0.07		CO[C@]1(C(=O)O)C[C@H](O)[C@@H](NC(C)=O)[C@H]([C@@H](O)[C@H](O)CO)O1
0.9		CC(=O)N[C@H]1[C@H]([C@@H](O)[C@H](O)CO)O[C@@](Oc2cccc(-c3cn(-c4ccc(C(=O)O)cc4)nn3)c2)(C(=O)O)C[C@@H]1O
0.38		CC(=O)N[C@H]1[C@H]([C@@H](O)[C@H](O)CO)O[C@@](OCc2ccc(-c3ccccc3)cc2)(C(=O)O)C[C@@H]1O
0.89		CC(=O)N[C@H]1[C@H]([C@@H](O)[C@H](O)CO)O[C@@](Oc2ccc(Oc3ccccc3)cc2)(C(=O)O)C[C@@H]1O
